Among the data in paper PMC7541927 (Preventive Nutrition and Food Science, 2020) are IC50 values, retold here.

The target of the experiment is T1, α-amylase from porcine pancreas (Sus scrofa, UniProt P00690).
T1 sequence (P00690 16-511): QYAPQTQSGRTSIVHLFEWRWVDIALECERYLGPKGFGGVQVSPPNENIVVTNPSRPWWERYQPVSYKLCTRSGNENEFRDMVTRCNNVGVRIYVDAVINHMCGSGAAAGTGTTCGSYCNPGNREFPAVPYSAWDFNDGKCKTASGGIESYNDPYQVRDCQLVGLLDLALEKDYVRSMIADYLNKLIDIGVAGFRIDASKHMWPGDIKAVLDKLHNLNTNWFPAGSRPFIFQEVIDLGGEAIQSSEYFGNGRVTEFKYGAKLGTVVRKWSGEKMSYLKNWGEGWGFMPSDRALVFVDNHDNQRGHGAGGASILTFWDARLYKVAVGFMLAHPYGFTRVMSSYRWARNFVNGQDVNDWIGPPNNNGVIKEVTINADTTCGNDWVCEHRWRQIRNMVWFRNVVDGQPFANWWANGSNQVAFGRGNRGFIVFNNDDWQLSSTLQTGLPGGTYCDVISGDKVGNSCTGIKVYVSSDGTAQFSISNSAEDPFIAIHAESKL
The experiment is described as follows: biochemical.

For `O=C(O)CC(O)(CC(=O)O)C(=O)O` [citric acid], the half-inhibitory concentration (IC50) stood at 640 ± 40 µM.

For orientation: IC50 means the concentration at which inhibition is half-maximal. Read a high IC50 as weaker potency in that assay.
